We go through 7 compounds from patent US7244734B2, “Hexa- and octahydro-pyrido[1,2-a]pyrazine derivatives with NK1 antagonistic activity” (Solvay Pharmaceuticals B.V., priority 2003, dated 2007).

In test [1] the test system is NK1 agonist-induced gerbil foot-tapping. The test is described as follows: NK1 agonist (GR 73632)-induced gerbil foot-tapping. To be noted: Meriones unguiculatus, po, 60 min before anaesthesia; GR 73632 i.c.v.; male gerbils; read-out: In vivo antagonism Gerbil foot tapping p.o. ED50. As to the method:
Concentration-response relationships were constructed by plotting cAMP conversion against compound concentration and IC50 values were calculated by four-parameter logistic regression. Antagonist potencies (pA2) values were calculated using: […] in which the IC50 of the test compound was obtained from concentration-effect relationships, [SP] is the concentration of substance P (in mol/l; typically 10 nM), and the EC50 is the potency of substance P at human cloned NK1 receptors. NK1 Agonist—Induced Gerbil Foot-Tapping
Therefore, we have used this model to assess the in vivo activity of the compounds of the invention.
60 min prior to anaesthesia with N2O (0.8 L/min), halothane (3%) and O2 (0.8 L/min) male gerbils (40-60 g; Charles River) received an injection of vehicle or test compound (p.o.). Upon successful narcosis the anaesthetic was adjusted to N2O (0.6 L/min), halothane (1.5%) and O2 (0.6 L/min) and a midline scalp incision made. GR 73632 was infused into the cerebroventricular space (AP−0.5 mm, L−1.2 mm, and vertical−4.5 mm from bregma). Following recovery from anaesthesia (about 3-4 min) the foot tapping response was recorded for 5 minutes. The predefined criterion for antagonism of this response was defined as inhibition of foot tapping for ≧5 min.

The target of test [2] is T1, human NK1 receptor (Homo sapiens, UniProt P25103).
T1 construct: expressed in transfected cells; membranes
The test is described as follows: Receptor binding for human NK1 receptors ([3H]-substance P displacement, CHO cell membranes). The conditions noted are these: human NK1 receptor in CHO membranes, read-out: affinity NK-1 binding pKi (converted). As to the method:
Receptor Binding for Human NK1 Receptors
Affinity of the compounds for human NK1 receptors was assessed using radio-receptor binding assays. Membrane preparations were prepared from Chinese Hamster Ovarium fibroblast (CHO) cells in which the human NK1 receptor was stably expressed. Membranes were incubated with [^3H]-substance P in the absence or the presence of specified concentrations of the compounds, diluted in a suitable buffer in presence of peptidase inhibitor for 10 min at 25° C. Separation of bound radioactivity from free was done by filtration over Whatman GF/B glass fiber filters with two 5 sec washings. Bound radioactivity was counted by liquid scintillation counting using a Betaplate counter. Measured radioactivity was plotted against the concentration of the displacing test compound and displacement curves were calculated by four-parameter logistic regression, resulting in IC50 values, i.e. that concentration of displacing compound by which 50% of the radioligand is displaced. Affinity pKI values were calculated by correcting the IC50 values for radioligand concentration and its affinity for the human NK1 receptor according to the Cheng-Prusoff equation: pKi=−log [IC50/(1+S/Kd)] in which the IC50 is as described above, S is the concentration [^3H]-substance P used in the assay expressed in mol/l, and Kd is the equilibrium dissociation constant of [^3H]-substance P for human NK1 receptors (in mol/l). cAMP Measurements

SMILES strings stand for the structures.

T1 sequence (P25103 whole entry): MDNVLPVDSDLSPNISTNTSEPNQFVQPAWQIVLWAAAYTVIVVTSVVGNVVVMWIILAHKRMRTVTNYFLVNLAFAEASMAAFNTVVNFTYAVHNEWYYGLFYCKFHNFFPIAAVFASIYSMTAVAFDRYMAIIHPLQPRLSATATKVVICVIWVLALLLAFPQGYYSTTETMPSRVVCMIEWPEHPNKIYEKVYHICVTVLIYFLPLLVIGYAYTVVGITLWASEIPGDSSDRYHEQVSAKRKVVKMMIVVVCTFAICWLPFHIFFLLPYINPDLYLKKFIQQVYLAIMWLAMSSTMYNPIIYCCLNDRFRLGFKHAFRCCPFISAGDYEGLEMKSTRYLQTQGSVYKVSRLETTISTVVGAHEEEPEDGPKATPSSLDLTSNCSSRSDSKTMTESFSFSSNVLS

Regarding `O=C(c1cc(C(F)(F)F)cc(C(F)(F)F)c1)N1C[C@H]2CCC(c3ccncc3)=CN2C[C@H]1Cc1c[nH]c2ccccc12` [Compound 1, (3R,9aR)-(3,5-bis(trifluoromethyl)phenyl)-[3-(1H-indol-3-ylmethyl)-7-pyridin-4-yl-1,3,4,8,9,9a-hexahydro-pyrido[1,2-a]pyrazin-2-yl]-methanone], the ED50 in test [1] stood at 1.7 mg/kg. Further, the Ki in test [2] is 15.8 nM.

Turning to `O=C(c1cc(C(F)(F)F)cc(C(F)(F)F)c1)N1C[C@H]2CCC(c3cccnc3)=CN2C[C@H]1Cc1c[nH]c2ccccc12` [Compound 2, (3R,9aR)-(3,5-bis(trifluoromethyl)phenyl)-[3-(1H-indol-3-ylmethyl)-7-pyridin-3-yl-1,3,4,8,9,9a-hexahydro-pyrido[1,2-a]pyrazin-2-yl]-methanone], the Ki in test [2] is 20 nM.

For `O=C(c1cc(C(F)(F)F)cc(C(F)(F)F)c1)N1C[C@H]2CCC(c3ccccn3)=CN2C[C@H]1Cc1c[nH]c2ccccc12` [Compound 3, (3R,9aR)-(3,5-bis(trifluoromethyl)phenyl)-[3-(1H-indol-3-ylmethyl)-7-pyridin-2-yl-1,3,4,8,9,9a-hexahydro-pyrido[1,2-a]pyrazin-2-yl]-methanone], in test [1], the ED50 came to 2.2 mg/kg. In test [2], the Ki is 3.16 nM.

Take `O=C(c1cc(C(F)(F)F)cc(C(F)(F)F)c1)N1C[C@H]2CCC(c3cncnc3)=CN2C[C@H]1Cc1c[nH]c2ccccc12` [Compound 4, (3R,9aR)-(3,5-bis(trifluoromethyl)phenyl)-[3-(1H-indol-3-ylmethyl)-7-pyrimidin-5-yl-1,3,4,8,9,9a-hexahydro-pyrido[1,2-a]pyrazin-2-yl]-methanone]: in test [2], the Ki is 7.94 nM.

Turning to `O=C(c1cc(C(F)(F)F)cc(C(F)(F)F)c1)N1C[C@H]2CCC(c3cnccn3)=CN2C[C@H]1Cc1c[nH]c2ccccc12` [Compound 5, (3R,9aR)-(3,5-bis(trifluoromethyl)phenyl)-[3-(1H-indol-3-ylmethyl)-7-pyrazin-2-yl-1,3,4,8,9,9a-hexahydro-pyrido[1,2-a]pyrazin-2-yl]-methanone], the Ki in test [2] is 2.51 nM.

Regarding `O=C(c1cc(C(F)(F)F)cc(C(F)(F)F)c1)N1C[C@H]2CCC(c3ncccn3)=CN2C[C@H]1Cc1c[nH]c2ccccc12` [Compound 6, (3R,9aR)-(3,5-bis(trifluoromethyl)phenyl)-[3-(1H-indol-3-ylmethyl)-7-pyrimidin-2-yl-1,3,4,8,9,9a-hexahydro-pyrido[1,2-a]pyrazin-2-yl]-methanone], the Ki in test [2] is 1.58 nM.

In the case of `O=C(c1cc(C(F)(F)F)cc(C(F)(F)F)c1)N1C[C@H]2CCC(c3nccs3)=CN2C[C@H]1Cc1c[nH]c2ccccc12` [Compound 7, (3R,9aR)-(3,5-bis(trifluoromethyl)phenyl)-[3-(1H-indol-3-ylmethyl)-7-thiazol-2-yl-1,3,4,8,9,9a-hexahydro-pyrido[1,2-a]pyrazin-2-yl]-methanone], the ED50 in test [1] was determined as 3.4 mg/kg. Moreover, the Ki in test [2] was 0.631 nM.
